# pIC50: −log10 of the molar value.
# Biological target: T1, recominbant human tryptase, beta, from lung (Homo sapiens, UniProt P20231)
# T1 construct: purchased Promega or Enzo Life Sciences G5631 or BML-SE418
# Experiment: Inhibition of tryptase activity by monomers and multimers (Boc-Gln-Ala-Arg-AMC fluorescence)
# Assay type: biochemical
# Details: monomers against tryptase, Table 5; read-out: Monomer IC50 range
# Procedure, shortened: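 Recombinant human lung β-tryptase (1 nM final; stock with heparin sulfate and 1 M NaCl) preincubated with test substance, then 200 μM Boc-Gln-Ala-Arg-AMC added in 50 mM HEPES, 150 mM NaCl, 100 μM EDTA, 0.02% Tween-20, pH 7.4. AMC fluorescence (ex 367/em 468 nm) read every 30 s for 15–30 min; IC50 from Vmax concentration-response curves.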
# T1 sequence (P20231 31-275): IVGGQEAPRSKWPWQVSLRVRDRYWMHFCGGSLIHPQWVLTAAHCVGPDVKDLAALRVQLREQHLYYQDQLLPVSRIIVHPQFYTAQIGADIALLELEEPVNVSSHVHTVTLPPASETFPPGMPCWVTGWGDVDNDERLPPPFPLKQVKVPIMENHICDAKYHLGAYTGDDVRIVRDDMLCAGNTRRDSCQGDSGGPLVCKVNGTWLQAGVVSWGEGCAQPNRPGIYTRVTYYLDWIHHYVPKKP
row,SMILES,pIC50
1,NCc1cccc(C2CCN(C(=O)c3cc4cc(O)c(O)cc4oc3=O)CC2)c1 [T100],4.19 to 5.00
2,Cc1c(CC(=O)N2CCC(c3cccc(CN)c3)CC2)c(=O)oc2c(O)c(O)ccc12 [T101],6.00 to 10.00
3,NCc1cccc(C2CCN(C(=O)c3cc4ccc(O)c(O)c4oc3=O)CC2)c1 [T102],6.00 to 10.00
4,"NCc1cccc(C2CCN(C(=O)c3cccc(OCC(O)(C(=O)O)C4CCCC4)c3)CC2)c1 (stereo not drawn) [T103, 3-(3-(4-(3-(aminomethyl)phenyl)piperidine-1-carbonyl)phenoxy)-2-cyclopentyl-2-hydroxypropanoic acid]",6.00 to 10.00

# Same assay, conditions: monomers against tryptase, entry marked (1:10); read-out: IC50 range group of additional monomers marked (1:10)
row,SMILES,pIC50
1,NCc1cccc(C2CCN(C(=O)c3cc4ccc(O)c(O)c4oc3=O)CC2)c1 [T102],6.00 to 10.00
2,"NCc1cccc(C2CCN(C(=O)c3cccc(OCC(O)(C(=O)O)C4CCCC4)c3)CC2)c1 (stereo not drawn) [T103, 3-(3-(4-(3-(aminomethyl)phenyl)piperidine-1-carbonyl)phenoxy)-2-cyclopentyl-2-hydroxypropanoic acid]",6.00 to 10.00
3,CSc1sc(C(=O)N2CCC3(CC2)COc2ccc(CN)cc23)cc1-c1cccc(B(O)O)c1 [T116SPIRO],6.00 to 10.00

# Same assay, conditions: monomers against tryptase; read-out: IC50 range group of additional monomers (boronic acid, benzooxaborole, ligands)
row,SMILES,pIC50
1,Cc1c(CC(=O)N2CCC(c3cccc(CN)c3)CC2)c(=O)oc2cc(O)c(O)cc12 [T99],5.00 to 6.00
2,NCc1cccc(C2CCN(C(=O)c3cc4cc(O)c(O)cc4oc3=O)CC2)c1 [T100],4.19 to 5.00
3,Cc1c(CC(=O)N2CCC(c3cccc(CN)c3)CC2)c(=O)oc2c(O)c(O)ccc12 [T101],6.00 to 10.00
4,COc1cc(C(=O)N2CCC3(CC2)COc2ccc(CN)cc23)cc(O)c1O [T104SPIRO],6.00 to 10.00
5,COc1cc(C(=O)N2CCC(c3cccc(CN)c3)CC2)cc(O)c1O [T104],6.00 to 10.00
6,Cc1cc(C(=O)N2CCC(c3cccc(CN)c3)CC2)cc(-c2cccc(B(O)O)c2)c1C [T107],5.00 to 6.00
7,NCc1ccc2c(c1)C1(CCN(C(=O)c3ccc(Cl)c(-c4cccc(B(O)O)c4)c3)CC1)CO2 [T109SPIRO],6.00 to 10.00
8,NCc1ccc2c(c1)C1(CCN(C(=O)c3cccc(-c4cccc5c4COB5O)c3)CC1)CO2 [T112SPIRO],5.00 to 6.00
9,Cc1cc(C(=O)N2CCC3(CC2)COc2ccc(CN)cc23)cc(CO)c1O [T113SPIRO],6.00 to 10.00
10,CONC(=O)c1cc(C(=O)N2CCC3(CC2)COc2ccc(CN)cc23)cc(C)c1O [T114Spiro],6.00 to 10.00
11,CSc1sc(C(=O)N2CCC3(CC2)COc2ccc(CN)cc23)cc1-c1cccc2c1C(C)OB2O (stereo not drawn) [T117GEMMONO],6.00 to 10.00
12,CSc1sc(C(=O)N2CCC3(CC2)COc2ccc(CN)cc23)cc1-c1cccc2c1COB2O [T117SPIRO],6.00 to 10.00
13,CC(C)(O)c1ccc(C(=O)N2CCC(c3cccc(CN)c3)CC2)cc1O [T126],5.00 to 6.00
14,COc1ccc(C(=O)N2CCC(c3cccc(CN)c3)CC2)c(O)c1O [T127],5.00 to 6.00
15,NCc1ccc2c(c1)C1(CCN(C(=O)c3cccc(-c4ccc(F)c(B(O)O)c4)c3)CC1)CO2 [T131SPIRO],6.00 to 10.00
16,NCc1ccc2c(c1)C1(CCN(C(=O)c3cccc(-c4cc(F)cc(B(O)O)c4)c3)CC1)CO2 [T132SPIRO],5.00 to 6.00
17,NCc1ccc2c(c1)C1(CCN(C(=O)c3cccc(-c4cccc(B(O)O)c4F)c3)CC1)CO2 [T133SPIRO],6.00 to 10.00
18,CONC(=O)c1cc(C)cc(C(=O)N2CCC(c3cccc(CN)c3)CC2)c1O [T136A],6.00 to 10.00
19,CN(Cc1ccccc1B(O)O)c1cccc2c(C(=O)N3CCC(c4cccc(CN)c4)CC3)cccc12 [T143],5.00 to 6.00
20,Cc1c(CC(=O)N2CCC(c3cccc(CN)c3)CC2)c(=O)oc2cc(N(C)Cc3ccccc3B(O)O)ccc12 [T144],5.00 to 6.00
21,CN(Cc1ccccc1B(O)O)c1cccc(C(=O)N2CCC(c3cccc(CN)c3)CC2)c1 [T146],4.19 to 5.00
22,CN(Cc1ccccc1B(O)O)c1ccc(C(=O)N2CCC(c3cccc(CN)c3)CC2)cc1 [T147],5.00 to 6.00
23,CN(Cc1ccccc1B(O)O)c1ccc2c(C(=O)N3CCC(c4cccc(CN)c4)CC3)cccc2c1 [T154],5.00 to 6.00
24,CN(C)c1ccc(B(O)O)cc1-c1cccc(C(=O)N2CCC3(CC2)COc2ccc(CN)cc23)c1 [T155SPIRO],5.00 to 6.00
25,NCc1cccc(C2CCN(C(=O)c3cnc4c(B(O)O)cccc4c3)CC2)c1 [T156],6.00 to 10.00
26,CC(C)(C)ONC(=O)c1cc(C(=O)N2CCC3(CC2)COc2ccc(CN)cc23)ccc1O [T920TBSPIRO],5.00 to 6.00

# From patent US11970448B2, “Monomers capable of dimerizing in an aqueous solution, and methods of using same” (CORNELL UNIVERSITY, priority 2011, dated 2024)
